Measurements as given in US20230085307A1, “PYRIDAZINONE COMPOUND AND HERBICIDE” (NISSAN CHEMICAL CORPORATION, priority 2019, published 2023).

Legend:
late watergrass = experiment: Test Example 1: herbicidal activity, application before weed generation under submerged conditions (Table 16, symbol A); type: in vivo, late watergrass (Echinochloa oryzicola); conditions: 176 g/ha applied herbicide
In short: (§1)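 Emulsion formulation, water-diluted to set dose, was put onto the flooded surface (4 cm depth, alluvial soil) the same day weeds were sown and 2.5-leaf rice transplanted. After 3 weeks at 25-30 °C under glass, each species was rated 0 (≤5% kill) to 5 (≥90% kill).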

Japanese bulrush = experiment: Test Example 1: herbicidal activity, application before weed generation under submerged conditions (Table 16, symbol B); type: in vivo, Japanese bulrush (Schoenoplectus juncoides); conditions: 176 g/ha applied herbicide
In short: as §1

oval-leafed pondweed = experiment: Test Example 1: herbicidal activity, application before weed generation under submerged conditions (Table 16, symbol C); type: in vivo, oval-leafed pondweed (Monochoria vaginalis); conditions: 176 g/ha applied herbicide
In short: as §1

barnyard grass [1] = experiment: Test Example 3: herbicidal effect by foliage application, Wagner pot (Table 18, symbol H); type: in vivo, barnyard grass (Echinochloa crus-galli); conditions: amount of applied herbicide 176 g/ha
In short: (§2)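 Plants were sown in alluvial soil held under 0.1–0.5 cm standing water and grown 14 days in a greenhouse at 25–30 °C. An emulsifiable formulation, water-diluted to the set dose, was then sprayed onto the foliage, and effects were scored three weeks later using previously defined criteria.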

Chinese sprangletop = experiment: Test Example 3: herbicidal effect by foliage application, Wagner pot (Table 18, symbol D); type: in vivo, chinese sprangletop (Leptochloa chinensis); conditions: amount of applied herbicide 176 g/ha
In short: as §2

rice flat sedge = experiment: Test Example 3: herbicidal effect by foliage application, Wagner pot (Table 18, symbol E); type: in vivo, rice flat sedge (Cyperus iria); conditions: amount of applied herbicide 176 g/ha
In short: as §2

southern crabgrass [2] = experiment: Test Example 4: herbicidal effect by soil treatment (Table 19, symbol F); type: in vivo, southern crabgrass (Digitaria ciliaris); conditions: amount of applied herbicide 176 g/ha
In short: (§3)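 Pre-emergence style soil spray: seeds under ~1.5 cm sterilized diluvial soil received a uniform coat of emulsion diluted to the predetermined herbicide amount. Greenhouse 25–30° C; readout at week three on previously defined criteria.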

green foxtail [3] = experiment: Test Example 4: herbicidal effect by soil treatment (Table 19, symbol G); type: in vivo, green foxtail (Setaria viridis); conditions: amount of applied herbicide 176 g/ha
In short: as §3

barnyard grass [4] = experiment: Test Example 4: herbicidal effect by soil treatment (Table 19, symbol H); type: in vivo, barnyard grass (Echinochloa crus-galli); conditions: amount of applied herbicide 176 g/ha
In short: as §3

wild oat [5] = experiment: Test Example 4: herbicidal effect by soil treatment (Table 19, symbol I); type: in vivo, wild oat (Avena fatua); conditions: amount of applied herbicide 176 g/ha
In short: as §3

blackgrass [6] = experiment: Test Example 4: herbicidal effect by soil treatment (Table 19, symbol J); type: in vivo, blackgrass (Alopecurus myosuroides); conditions: amount of applied herbicide 176 g/ha
In short: as §3

Italian ryegrass [7] = experiment: Test Example 4: herbicidal effect by soil treatment (Table 19, symbol K); type: in vivo, Italian ryegrass (Lolium multiflorum); conditions: amount of applied herbicide 176 g/ha
In short: as §3

windgrass [8] = experiment: Test Example 4: herbicidal effect by soil treatment (Table 19, symbol L); type: in vivo, windgrass (Apera spica-venti); conditions: amount of applied herbicide 176 g/ha
In short: as §3

velvetleaf [9] = experiment: Test Example 4: herbicidal effect by soil treatment (Table 19, symbol M); type: in vivo, velvetleaf (Abutilon theophrasti); conditions: amount of applied herbicide 176 g/ha
In short: as §3

lambsquarters [10] = experiment: Test Example 4: herbicidal effect by soil treatment (Table 19, symbol O); type: in vivo, lambsquarters (Chenopodium album); conditions: amount of applied herbicide 176 g/ha
In short: as §3

chickweed [11] = experiment: Test Example 4: herbicidal effect by soil treatment (Table 19, symbol P); type: in vivo, common chickweed (Stellaria media); conditions: amount of applied herbicide 176 g/ha
In short: as §3

persian speedwell [12] = experiment: Test Example 4: herbicidal effect by soil treatment (Table 19, symbol R); type: in vivo, Persian speedwell (Veronica persica); conditions: amount of applied herbicide 176 g/ha
In short: as §3

southern crabgrass [13] = experiment: Test Example 5: herbicidal effect by foliage application, plastic box (Table 20, symbol F); type: in vivo, southern crabgrass (Digitaria ciliaris); conditions: foliage application, 176 g/ha, evaluated three weeks after application
In short: (§4)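 Plants were sown into sterilized diluvial soil under about 1.5 cm cover and kept in a greenhouse at 25° C. to 30° C. Fourteen days on, foliage received an even spray of the diluted emulsion. Herbicidal or crop effect was judged three weeks afterwards.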

green foxtail [14] = experiment: Test Example 5: herbicidal effect by foliage application, plastic box (Table 20, symbol G); type: in vivo, green foxtail (Setaria viridis); conditions: foliage application, 176 g/ha, evaluated three weeks after application
In short: as §4

barnyard grass [15] = experiment: Test Example 5: herbicidal effect by foliage application, plastic box (Table 20, symbol H); type: in vivo, barnyard grass (Echinochloa crus-galli); conditions: foliage application, 176 g/ha, evaluated three weeks after application
In short: as §4

wild oat [16] = experiment: Test Example 5: herbicidal effect by foliage application, plastic box (Table 20, symbol I); type: in vivo, wild oat (Avena fatua); conditions: foliage application, 176 g/ha, evaluated three weeks after application
In short: as §4

blackgrass [17] = experiment: Test Example 5: herbicidal effect by foliage application, plastic box (Table 20, symbol J); type: in vivo, blackgrass (Alopecurus myosuroides); conditions: foliage application, 176 g/ha, evaluated three weeks after application
In short: as §4

Italian ryegrass [18] = experiment: Test Example 5: herbicidal effect by foliage application, plastic box (Table 20, symbol K); type: in vivo, Italian ryegrass (Lolium multiflorum); conditions: foliage application, 176 g/ha, evaluated three weeks after application
In short: as §4

windgrass [19] = experiment: Test Example 5: herbicidal effect by foliage application, plastic box (Table 20, symbol L); type: in vivo, windgrass (Apera spica-venti); conditions: foliage application, 176 g/ha, evaluated three weeks after application
In short: as §4

velvetleaf [20] = experiment: Test Example 5: herbicidal effect by foliage application, plastic box (Table 20, symbol M); type: in vivo, velvetleaf (Abutilon theophrasti); conditions: foliage application, 176 g/ha, evaluated three weeks after application
In short: as §4

redroot pigweed = experiment: Test Example 5: herbicidal effect by foliage application, plastic box (Table 20, symbol N); type: in vivo, redroot pigweed (Amaranthus retroflexus); conditions: foliage application, 176 g/ha, evaluated three weeks after application
In short: as §4

lambsquarters [21] = experiment: Test Example 5: herbicidal effect by foliage application, plastic box (Table 20, symbol O); type: in vivo, lambsquarters (Chenopodium album); conditions: foliage application, 176 g/ha, evaluated three weeks after application
In short: as §4

chickweed [22] = experiment: Test Example 5: herbicidal effect by foliage application, plastic box (Table 20, symbol P); type: in vivo, common chickweed (Stellaria media); conditions: foliage application, 176 g/ha, evaluated three weeks after application
In short: as §4

persian speedwell [23] = experiment: Test Example 5: herbicidal effect by foliage application, plastic box (Table 20, symbol R); type: in vivo, Persian speedwell (Veronica persica); conditions: foliage application, 176 g/ha, evaluated three weeks after application
In short: as §4

COc1ccccc1-c1sc2ccc(C)cc2c1-c1c(O)c(C)nn(C)c1=O [2-138]
Herbicidal effect on A: late watergrass (grade 0-5) (late watergrass): 5 (Herbicidal rate of 90% or more (almost completely withered)) | Herbicidal effect on B: Japanese bulrush (grade 0-5) (Japanese bulrush): 0 (Herbicidal rate of 5% or less (almost no effect)) | Herbicidal effect on C: oval-leafed pondweed (grade 0-5) (oval-leafed pondweed): 0 (Herbicidal rate of 5% or less (almost no effect)) | herbicidal effect on H: barnyard grass (barnyard grass [1]): 5 (Herbicidal rate of 90% or more (almost completely withered)) | herbicidal effect on D: Chinese sprangletop (Chinese sprangletop): 1 (Herbicidal rate of 5% or more and less than 20%) | herbicidal effect on E: rice flat sedge (rice flat sedge): 4 (Herbicidal rate of 70% or more and less than 90%) | F: southern crabgrass, herbicidal effect rating (southern crabgrass [2]): 0 (Herbicidal rate of 5% or less (almost no effect)) | G: green foxtail, herbicidal effect rating (green foxtail [3]): 4 (Herbicidal rate of 70% or more and less than 90%) | H: barnyard grass, herbicidal effect rating (barnyard grass [4]): 3 (Herbicidal rate of 40% or more and less than 70%) | I: wild oat, herbicidal effect rating (wild oat [5]): 0 (Herbicidal rate of 5% or less (almost no effect)) | J: blackgrass, herbicidal effect rating (blackgrass [6]): 3 (Herbicidal rate of 40% or more and less than 70%) | K: Italian ryegrass, herbicidal effect rating (Italian ryegrass [7]): 0 (Herbicidal rate of 5% or less (almost no effect)) | L: windgrass, herbicidal effect rating (windgrass [8]): 0 (Herbicidal rate of 5% or less (almost no effect)) | M: velvetleaf, herbicidal effect rating (velvetleaf [9]): 0 (Herbicidal rate of 5% or less (almost no effect)) | O: lambsquarters, herbicidal effect rating (lambsquarters [10]): 5 (Herbicidal rate of 90% or more (almost completely withered)) | P: chickweed, herbicidal effect rating (chickweed [11]): 0 (Herbicidal rate of 5% or less (almost no effect)) | R: persian speedwell, herbicidal effect rating (persian speedwell [12]): 0 (Herbicidal rate of 5% or less (almost no effect)) | herbicidal effect on F: southern crabgrass (southern crabgrass [13]): 3 (Herbicidal rate of 40% or more and less than 70%) | herbicidal effect on G: green foxtail (green foxtail [14]): 4 (Herbicidal rate of 70% or more and less than 90%) | herbicidal effect on H: barnyard grass (barnyard grass [15]): 4 (Herbicidal rate of 70% or more and less than 90%) | herbicidal effect on I: wild oat (wild oat [16]): 0 (Herbicidal rate of 5% or less (almost no effect)) | herbicidal effect on J: blackgrass (blackgrass [17]): 3 (Herbicidal rate of 40% or more and less than 70%) | herbicidal effect on K: Italian ryegrass (Italian ryegrass [18]): 3 (Herbicidal rate of 40% or more and less than 70%) | herbicidal effect on L: windgrass (windgrass [19]): 4 (Herbicidal rate of 70% or more and less than 90%) | herbicidal effect on M: velvetleaf (velvetleaf [20]): 5 (Herbicidal rate of 90% or more (almost completely withered)) | herbicidal effect on N: redroot pigweed (redroot pigweed): 0 (Herbicidal rate of 5% or less (almost no effect)) | herbicidal effect on O: lambsquarters (lambsquarters [21]): 4 (Herbicidal rate of 70% or more and less than 90%) | herbicidal effect on P: chickweed (chickweed [22]): 5 (Herbicidal rate of 90% or more (almost completely withered)) | herbicidal effect on R: persian speedwell (persian speedwell [23]): 5 (Herbicidal rate of 90% or more (almost completely withered))
